Results: patent US20250206761A1, “HALOINDOLE MACROCYCLIC COMPOUNDS FOR THE TREATMENT OF CANCER” (Hoffmann-La Roche Inc., priority 2022, published 2025)

Experiments:
KRAS G12C-BRAF complex [1] = molecular target: T1, KRAS G12C-BRAF complex (Homo sapiens (Human), UniProt P01116+P62937, G12C); test: KRAS G12C-BRAF NanoBit assay; format: cell-based; details: HEK293 cells, 3 hours of incubation
Method in brief: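 Stable HEK293 pool co-expressing SmBit-KRAS G12C and BRAF RBD-LgBit; 10,000 cells/well incubated 3 h with compound, 16-point 3-fold dilution from 30 μM final. Live-cell Nano-Glo substrate added, luminescence read at 20 min; disruption seen as luminescence decrease vs DMSO.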

KRAS G12C-BRAF complex [2] = molecular target: T1, KRAS G12C-BRAF complex; test: KRAS-BRAF with CYPA (500 nM) interaction assay (TR-FRET), G12C; format: biochemical
[3] = molecular target: KRAS G12V binding to BRAF (Homo sapiens (Human), UniProt P01116+P62937, G12V); test: KRAS-BRAF with CYPA (500 nM) interaction assay (TR-FRET), G12V; format: biochemical
Method in brief: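 A TR-FRET assay measured how compound, in the presence of CYPA, disrupts binding of GMPPNP-loaded 6His-KRAS G12V to BRAF. The buffer contained 25 mM HEPES PH=7.4, 0.002% Tween20, 0.1% BSA, 100 mM NaCl, 5 mM MgCl2 and 10 μM GMPPNP. Compounds ran as a 16-point 3-fold dilution series from 10 μM for 3 hours.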

[4] = tested on: phosphorylation of ERK, KRAS G12D in AGS cells; test: pERK inhibition assay, KRAS G12D; format: cell-based, human; details: Homo sapiens, 4 hours
Method in brief: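 Plate cells, attach overnight; add compound (0.5% DMSO) for 4 h; fix in 4% formaldehyde, permeabilize with chilled methanol; block; incubate pERK antibody overnight at 4 °C, then HRP secondary; develop with TMB, stop, read OD450; fit 4-parameter curve for IC50.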

Sequence of KRAS G12V binding to BRAF (P01116-2 other isoform, or with tags, fused parts or gaps G12V): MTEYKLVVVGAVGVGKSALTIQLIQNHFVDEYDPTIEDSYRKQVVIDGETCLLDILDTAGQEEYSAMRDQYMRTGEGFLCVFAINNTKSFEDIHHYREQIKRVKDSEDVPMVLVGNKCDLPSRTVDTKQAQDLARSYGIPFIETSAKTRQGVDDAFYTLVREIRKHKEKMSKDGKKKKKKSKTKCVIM
Sequence of KRAS G12V binding to BRAF (P62937 whole entry): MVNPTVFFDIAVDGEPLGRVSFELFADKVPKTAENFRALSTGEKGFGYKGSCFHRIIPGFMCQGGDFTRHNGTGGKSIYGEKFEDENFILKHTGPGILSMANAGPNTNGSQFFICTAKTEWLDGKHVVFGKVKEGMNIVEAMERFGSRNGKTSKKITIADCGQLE
T1 sequence (P01116-2 other isoform, or with tags, fused parts or gaps G12C): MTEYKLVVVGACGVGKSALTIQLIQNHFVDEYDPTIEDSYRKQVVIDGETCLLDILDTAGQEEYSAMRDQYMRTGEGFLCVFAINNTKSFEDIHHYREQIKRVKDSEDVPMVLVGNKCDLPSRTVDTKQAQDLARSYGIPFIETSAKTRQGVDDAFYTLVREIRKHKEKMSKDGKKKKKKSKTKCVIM
T1 sequence (P62937 whole entry): as the sequence (P62937 whole entry) above

Row | Compound | IC50 (KRAS G12C-BRAF complex [1]) [nM] | IC50 (KRAS G12C-BRAF complex [2]) [nM] | IC50 [3] [nM] | IC50 [4] [nM]
1 | CCn1c(-c2cc(N3CCOCC3)cnc2[C@H](C)OC)c2c3cc(c(F)cc31)-c1csc(n1)C[C@H](NC(=O)[C@H](C(C)C)N1CCC3(CN(C(=O)[C@H](F)Cl)C3)C1=O)C(=O)N1CCC[C@H](N1)C(=O)OCC(C)(C)C2 (atropisomer, axis not shown; (M)) [Example 52, (2S)-2-[2-[(2R)-2-chloro-2-fluoro-acetyl]-5-oxo-2,6-diazaspiro[3.4]octan-6-yl]-N-[(7S,13S)-21-ethyl-24-fluoro-(20M)-20-[2-[(1S)-1-methoxyethyl]-5-morpholino-3-pyridyl]-17,17-dimethyl-8,14-dioxo-15-oxa-4-thia-9,21,27,28-tetrazapentacyclo[17.5.2.1^2,5.1^9,13.0^22,26]octacosa-1(25),2,5(28),19,22(26),23-hexaen-7-yl]-3-methyl-butanamide] | 70 | 115 | > 10000 | 103
2 | CCn1c(-c2cc(N3CCOCC3)cnc2[C@H](C)OC)c2c3cc(c(F)cc31)-c1csc(n1)C[C@H](NC(=O)[C@H](C(C)C)N1CC[C@@]3(CCN(C(=O)[C@H](F)Cl)C3)C1=O)C(=O)N1CCC[C@H](N1)C(=O)OCC(C)(C)C2 (atropisomer, axis not shown; (M)) [Example 53, (2S)-2-[(5R)-7-[(2R)-2-chloro-2-fluoro-acetyl]-1-oxo-2,7-diazaspiro[4.4]nonan-2-yl]-N-[(7S,13S)-21-ethyl-24-fluoro-(20M)-20-[2-[(1S)-1-methoxyethyl]-5-morpholino-3-pyridyl]-17,17-dimethyl-8,14-dioxo-15-oxa-4-thia-9,21,27,28-tetrazapentacyclo[17.5.2.1^2,5.1^9,13.0^22,26]octacosa-1(25),2,5(28),19,22(26),23-hexaen-7-yl]-3-methyl-butanamide] | 17 | 56 | > 10000 | 46
3 | CCn1c(-c2cc(N3CCOCC3)cnc2[C@H](C)OC)c2c3cc(c(F)cc31)-c1csc(n1)C[C@H](NC(=O)[C@H](C(C)C)N(C)C(=O)C1(F)CCN(C(=O)[C@H](F)Cl)CC1)C(=O)N1CCC[C@H](N1)C(=O)OCC(C)(C)C2 (atropisomer, axis not shown; (M)) [Example 54, 1-[(2R)-2-chloro-2-fluoro-acetyl]-N-[(1S)-1-[[(7S,13S)-21-ethyl-24-fluoro-(20M)-20-[2-[(1S)-1-methoxyethyl]-5-morpholino-3-pyridyl]-17,17-dimethyl-8,14-dioxo-15-oxa-4-thia-9,21,27,28-tetrazapentacyclo[17.5.2.1^2,5.1^9,13.0^22,26]octacosa-1(25),2,5(28),19,22(26),23-hexaen-7-yl]carbamoyl]-2-methyl-propyl]-4-fluoro-N-methyl-piperidine-4-carboxamide] | 3 | 19 | 217 | 25
4 | CCn1c(-c2cc(N3CCOCC3)cnc2[C@H](C)OC)c2c3cc(c(F)cc31)-c1csc(n1)C[C@H](NC(=O)[C@H](C(C)C)N(C)C(=O)[C@H]1CCN(C(=O)[C@H](F)Cl)C1)C(=O)N1CCC[C@H](N1)C(=O)OCC(C)(C)C2 (atropisomer, axis not shown; (M)) [Example 55, (3S)-1-[(2R)-2-chloro-2-fluoro-acetyl]-N-[(1S)-1-[[(7S,13S)-21-ethyl-24-fluoro-(20M)-20-[2-[(1S)-1-methoxyethyl]-5-morpholino-3-pyridyl]-17,17-dimethyl-8,14-dioxo-15-oxa-4-thia-9,21,27,28-tetrazapentacyclo[17.5.2.1^2,5.1^9,13.0^22,26]octacosa-1(25),2,5(28),19,22(26),23-hexaen-7-yl]carbamoyl]-2-methyl-propyl]-N-methyl-pyrrolidine-3-carboxamide] | 10 | 40 | 2110 | 106
5 | CO[C@@H](C)c1ncc(N2CCN(C)CC2)cc1-c1c2c3cc(c(F)cc3n1CC(F)(F)F)-c1csc(n1)C[C@H](NC(=O)[C@H](C(C)C)N1CCC[C@@]3(CCN(C(=O)[C@H](F)Cl)C3)C1=O)C(=O)N1CCC[C@H](N1)C(=O)OCC(C)(C)C2 (single isomer, unassigned) [Example 16] | 8 | 100 | > 10000 | 19
